In patent US9040717B2, “Pyrazole-amide compounds and pharmaceutical use thereof” (JAPAN TOBACCO INC., priority 2013, dated 2015):

How the values were obtained:
[1] = biological target: hERG current in hERG-transfected HEK293 cells (Homo sapiens (Human), UniProt Q12809); experiment: hERG whole cell patch clamp test; format: cell-based
Procedure: Using human ether-a-go-go related gene (hERG)-transfected HEK293 cells (Cytomyx Limited), an influence on hERG current was examined according to the whole cell patch clamp technique. The hERG-transfected HEK293 cells were passaged using a CO2 incubator (BNA-111, TABAI ESPEC CORP.) under the set conditions of 37° C., 5% CO2, saturated humidity. Culture containers used were Collagen Type I Coated 75 cm^2 flask (4123-010, AGC TECHNO GLASS CO., Ltd.) and Collagen Type I Coated 35 mm culture dish (4000-010, AGC TECHNO GLASS CO., Ltd.). The culture medium used was E-MEM (Eagle Minimum Essential Medium (Earle's Salts, Nikken biomedical laboratory) added with 10% FCS (Fetal calf serum, BioWest, L.L.C.) and 1% MEM Non-Essential Amino Acids Solution (NEAA, Invitrogen Corporation). Geneticin for the selection of hERG gene expressing cells was added thereto to a concentration of 400 μg/mL. As the cells for the measurement, 3×10^4 hERG-transfected HEK293 cells were plated on a 35 mm culture dish 4 to 7 days before measurement of the hERG current. The culture dish produced for the measurement contained the above-mentioned culture medium without geneticin (Invitrogen Corporation).
The highest evaluation concentration of each compound was determined from the highest concentration at which precipitation was not found in the standard extracellular fluid (NaCl: 140 mmol/L, KCl: 2.5 mmol/L, MgCl2:2 mmol/L, CaCl2: 2 mmol/L, HEPES: 10 mmol/L, glucose: 10 mmol/L (adjusted to pH 7.4 with Tris-base)). As the application method, each solution to be applied was ejected from a Y-tube having a tip diameter of about 0.25 mm, which was adjacent (about 2 mm) to the cells, and applied to the cells. The ejection rate was about 0.4 mL/min.
The experiment was performed at room temperature under a phase contrast microscope. The 35 mm culture dish plated with the cells was set on a measurement apparatus, and the standard extracellular fluid was continuously applied to the cells from the Y-tube. A glass electrode for the measurement was filled with an intracellular fluid (Potassium Gluconate: 130 mmol/L, KCl: 20 mmol/L, MgCl2: 1 mmol/L, ATP-Mg: 5 mmol/L, EGTA: 3.5 mmol/L, HEPES: 10 mmol/L (adjusted to pH 7.2 with Tris-base)). A conventional whole cell patch clamp method was applied to the cells, and the maintenance electric potential was set to −80 mV. Under a fixed electric potential, the whole cell current was amplified by an amplifier for patch clamp (AXOPATCH-200B, Axon Instruments, Inc.), and the data was loaded into a computer (IMC-P642400, Intermedical Co., Ltd.) using a data acquisition analysis software (pCLAMP 9.2, Axon Instruments, Inc.).
The measurement of the hERG current was performed in the following two steps. In both cases, the hERG current was initiated by giving a command potential (maintenance electric potential −80 mV, prepulse +20 mV, 1.5 sec, test-pulse −50 mV, 1.5 sec).
Step (1): The above-mentioned command potential was given at 0.1 Hz for 2 min.
Step (2): The above-mentioned command potential was subjected to P/3 subtraction of pCLAMP 9.2 to remove leak current. This was repeated three times and an average thereof was taken as hERG current.
Subsequent to step (1), Step (2) was performed (about 3 min), and the maximum tail current obtained by applying a test-pulse to the hERG current obtained by the method of step (2) was taken as hERG current value. Hereafter, the operations of (1) and (2) were alternately repeated until completion of the experiment and the hERG current value was measured.
Stable hERG current value was recorded three times (about 10 min), and the standard extracellular fluid was instantaneously exchanged with each application fluid. The hERG current value was measured three times (about 10 min) in the same manner during perfusion of the application fluid, and the current value obtained by the 3rd measurement was taken as hERG current value after perfusion of the application fluid. […]

liver PDH activity = experiment: Ex vivo PDH activation assay, liver; format: in vivo, Sprague-Dawley rats; conditions: non-fasting SD rats, vehicle 13 ± 3, mean ± S.D. (n = 3)
Procedure: (§1) The action of test compound on tissue PDH activity was evaluated. NADH production was detected via p-iodonitrotetrazolium violet (INT)-coupled system to measure PDH activity.
(§2) Normal male Sprague-Dawley rats were randomly allocated to the vehicle group and the test compound groups. The vehicle (0.5% aqueous methylcellulose solution, 5 mL/kg) or the test compound was orally administered to the rats. At 5 or 20 hr after administration, the rats were anesthetized with an intraperitoneal injection of sodium pentobarbital (60 mg/kg), and liver slices and epididymal adipose tissues were collected.
(§3) To the liver slices were rapidly added 9 volumes of ice-cold homogenization buffer (0.25 mol/L sucrose, 5 mmol/L tris(hydroxymethyl)aminomethane hydrochloride (pH 7.5), 2 mmol/L EDTA), and the mixtures were homogenized using a Polytron homogenizer. The homogenates were centrifuged at 600×g, 4° C. for 10 min to obtain the supernatant. The supernatants (1 mL) were centrifuged at 16,000×g, 4° C. for 10 min to collect the precipitates. The precipitates were washed by resuspension in the homogenization buffer (1 mL) and centrifuged in the same manner. The precipitates were frozen with liquid nitrogen and stored at −80° C. as the liver mitochondrial fraction.
(§4) The mitochondrial fractions were thawed and suspended with the sample buffer (0.25 mol/L sucrose, 20 mmol/L tris(hydroxymethyl)aminomethane hydrochloride (pH 7.5), 50 mmol/L potassium chloride, and 1 mL/L 4-(1,1,3,3-tetramethylbutyl)phenyl-polyethylene glycol (Triton X-100)). Active PDH activity (PDHa activity) and total PDH activity (PDHt activity) were measured to evaluate the PDH activity. For the measurement of the PDHt activity, equal amounts of the mitochondrial suspension and the activation buffer (0.25 mol/L sucrose, 20 mmol/L tris(hydroxymethyl)aminomethane hydrochloride (pH 7.5), 50 mmol/L potassium chloride, 1 mL/L Triton X-100, 4 mmol/L calcium chloride, 40 mmol/L magnesium chloride, 10 mmol/L sodium dichloroacetate) were mixed, and the mixtures were incubated at 37° C. for 10 min. Forty microliters of the mitochondrial suspensions diluted with a sample buffer were added to a 96-well microplate for activity measurement and blank measurement. Then 180 μL of the reaction mixture (0.056 mmol/L potassium phosphate buffer (pH 7.5), 5.6 mmol/L DL-carnitine, 2.8 mmol/L NAD, 0.22 mmol/L thiamin pyrophosphate, 0.11 mmol/L Coenzyme A, 1.1 mL/L Triton X-100, 1.1 mmol/L magnesium chloride, 1.1 g/L bovine serum albumin, 0.67 mmol/L INT, 7.2 μmol/L phenazine methosulfate, 28 mmol/L sodium oxamate) was added to each well, and then 20 μL of 50 mmol/L sodium pyruvate for activity measurement or water for blank measurement were added. The mixtures were incubated at room temperature under shading. The absorbances at 500-750 nm, which were attributable to reduction of INT, the final electron acceptor, were measured using a microplate reader over time and the changes in the absorbance were calculated. The PDH activity was calculated by subtraction of the change in absorbance of the blank well from that of the activity measurement well. The percentage of the PDHa activity to the PDHt activity was calculated and taken as an index of the PDH activation.

[2] = tested on: adipose tissue PDH activity; experiment: Ex vivo PDH activation assay, adipose tissue; format: in vivo, Sprague-Dawley rats; conditions: non-fasting SD rats, vehicle 31 ± 10, mean ± S.D. (n = 3)
Procedure: as §1, §2
as §3, with “adipose tissues” for “liver slices”, “3” for “9”, “of an” for “of”, “buffer,” for “buffer (0.25 mol/L sucrose, 5 mmol/L tris(hydroxymethyl)aminomethane hydrochloride (pH 7.5), 2 mmol/L EDTA),”, “supernatants” for “supernatants (1 mL)”, “adipose tissue” for “liver”
as §4

[3] = Table 2, 5 hr after oral 3 mg/kg
[4] = Table 2, 20 hr after oral 3 mg/kg

Chain of hERG current in hERG-transfected HEK293 cells (Q12809 whole entry): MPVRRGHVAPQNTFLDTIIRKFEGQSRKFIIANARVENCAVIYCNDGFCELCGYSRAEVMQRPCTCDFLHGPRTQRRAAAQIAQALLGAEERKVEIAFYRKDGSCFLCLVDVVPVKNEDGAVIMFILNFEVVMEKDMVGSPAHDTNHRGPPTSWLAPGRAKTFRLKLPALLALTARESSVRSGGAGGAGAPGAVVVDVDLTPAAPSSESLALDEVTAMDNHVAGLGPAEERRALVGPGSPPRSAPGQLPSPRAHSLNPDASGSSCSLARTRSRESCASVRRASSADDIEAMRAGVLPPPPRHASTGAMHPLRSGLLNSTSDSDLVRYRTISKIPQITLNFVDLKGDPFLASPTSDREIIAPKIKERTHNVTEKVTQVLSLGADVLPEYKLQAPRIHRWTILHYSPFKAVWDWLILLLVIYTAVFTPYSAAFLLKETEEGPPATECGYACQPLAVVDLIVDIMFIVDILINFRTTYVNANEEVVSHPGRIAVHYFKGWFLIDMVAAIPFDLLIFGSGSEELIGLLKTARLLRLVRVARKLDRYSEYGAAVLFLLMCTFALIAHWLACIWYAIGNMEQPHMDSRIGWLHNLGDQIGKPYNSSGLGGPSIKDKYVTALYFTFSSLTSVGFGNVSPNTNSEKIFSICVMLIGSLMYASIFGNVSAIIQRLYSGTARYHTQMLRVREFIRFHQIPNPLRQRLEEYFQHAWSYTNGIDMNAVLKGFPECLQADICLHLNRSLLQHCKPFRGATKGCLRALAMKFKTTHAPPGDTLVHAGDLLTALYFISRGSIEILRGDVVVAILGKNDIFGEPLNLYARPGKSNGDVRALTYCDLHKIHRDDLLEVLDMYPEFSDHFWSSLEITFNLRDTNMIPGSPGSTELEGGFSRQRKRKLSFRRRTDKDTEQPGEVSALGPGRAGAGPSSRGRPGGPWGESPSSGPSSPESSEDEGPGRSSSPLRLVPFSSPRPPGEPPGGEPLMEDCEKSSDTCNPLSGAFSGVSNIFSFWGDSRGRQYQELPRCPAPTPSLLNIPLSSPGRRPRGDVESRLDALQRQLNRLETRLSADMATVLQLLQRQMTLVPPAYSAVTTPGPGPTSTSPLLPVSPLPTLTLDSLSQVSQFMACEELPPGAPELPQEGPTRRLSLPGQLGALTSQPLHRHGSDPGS

Compound | hERG current Inhibition rate (%) ([1]; 3 μmol/L) | hERG current Inhibition rate (%) ([1]; 30 μmol/L) | PDHa activity (% of PDHt activity) (liver PDH activity; [3]) | PDHa activity (% of PDHt activity) (liver PDH activity; [4]) | PDHa activity (% of PDHt activity) [2, 3] | PDHa activity (% of PDHt activity) [2, 4]
CC(C)(O)COc1cc(-c2cnn(CCO)c2)c2c(c1)[C@@](O)(C(F)(F)F)c1ccccc1-2 [Compound (C), (9R)-4-[1-(2-Hydroxyethyl)-1H-pyrazol-4-yl]-2-(2-hydroxy-2-methylpropoxy)-9-(trifluoromethyl)-9H-fluoren-9-ol] | 11.5 | 69.0 | 44 ± 5 % of PDHt activity | 13 ± 3 % of PDHt activity | 53 ± 4 % of PDHt activity | 28 ± 7 % of PDHt activity
CC(C)(C(N)=O)n1cc(-c2cc(F)cc3c2-c2ccccc2[C@]3(O)C(F)(F)F)cn1 [Compound (D), 2-{4-[(9R)-2-Fluoro-9-hydroxy-9-(trifluoromethyl)-9H-fluoren-4-yl]-1H-pyrazol-1-yl}-2-methylpropanamide] | 9.4 | 67.5 | 41 ± 15 % of PDHt activity | 20 ± 1 % of PDHt activity | 43 ± 7 % of PDHt activity | 24 ± 3 % of PDHt activity
